Laboratory results as given in paper PMC6537702, “Design, synthesis, molecular modelling, and biological evaluation of novel substituted pyrimidine derivatives as potential anticancer agents for hepatocellular carcinoma” (Journal of Enzyme Inhibition and Medicinal Chemistry, 2019).
In brackets after ≈: the same amount, converted by molar mass. Where two headings read alike, the source gives them in different places.

Tests used:
[1] = Resazurin cell growth inhibition assay, normal fibroblast cells; format: cell-based; details: M ± SEM of three independent experiments, read-out: Cytotoxic activity IC50, Fibroblast
Source text: (§1) All compounds 2a-e, 3a-d, and PPAD’s 4a-t were subjected to a screening system for evaluation of their anticancer activity against cell line of human cancer, namely liver (HepG2 and Huh-7) cancer and normal fibroblast cells obtained from the German Cancer Research Center (DKFZ), following the Resazurin Cell Growth Inhibition Assay[45] in comparison to the standard treatment using DOX (see Supplementary).
(§2) Cell culture and treatment
(§3) All reagents were handled in a sterile fume hood. DMEM medium, and fetal bovine serum (FBS) were purchased from Gibco;phosphate-buffered saline pH 7.4 (PBS) and trypsin-EDTA were obtained from Sigmae Aldrich. Alamar Blue or Resazurin (Promega,Mannheim, Germany) reduction assay was used to assess the cytotoxicity of the studied samples. The growth medium (DMEMmedium with 10% FBS, 10 0 U/mL penicillin, and 10 0 mg/L streptomycin), and alamar blue were stored at 48 C, while trypsineEDTA and FBS were stored frozen at 208C and thawed before use; PBS was stored at room temperature. The Hep-G2, Huh-7 and normal fibroblast cells were obtained from the German Cancer Research Center (DKFZ).Cells were cultured in 50 cm2 culture flask s (Corning) using DMEM medium supplemented with 10% FBS, penicillin (10 0 IU/mL), and streptomycin ([…]). The culture was maintained at 37 C atmosphere of 5% CO2 and 95% relative humidity. The cells were transferred to a new fl ask every 2 days and treated with trypsineEDTA to detach them from the flask . Cells were counted under a microscope using a hemacytometer (Hausser Scientific).Cell solutions were diluted with growth medium to a concentration of 1 *10^5 cells/mL and transferred to a 96-well plate, and treated with gradient concentrations of test compounds.
(§4) Resazurin cell growth inhibition assay
(§5) Alamar Blue or Resazurin (Promega, Mannheim, Germany) reduction assay was used to assess the cytotoxicity of the studied samples. The assay tests cellular viability and mitochondrial function. Briefly y, adherent cells were grown in tissue culture flask s, and then harvested by treating the fl asks with 0.025% trypsin and0.25 mM EDTA for 5 min. Once detached, cells were washed, counted and an aliquot (5 * 103cells) was placed in each well of a96-well cell culture plate in a total volume of […]. Cells were allowed to attach overnight and then treated with samples. The final concentration of samples ranged from 0 to 10 0 mM. After 4 8 h,[…] Resazurin 0.01% w/v solution was added to each well and the plates were incubated at 37C for 1 -2 h. Fluorescence was measured on an automated 96-well Infinite M2000 ProTM plate reader (Tecan, Crailsheim, Germany) using an excit ation wave-length of 54 4 nm and an emission wavelength of 590 nm. Doxorubicin was used as positive control. Each assay was done at least three times, with two replicates each. The viability was compared based on a comparison with untreated cells. IC50(on cancer cells) were the concentration of sample required to inhibit 50% of the cell proliferation and were calculated from a calibration curve by a linear regression using Microsoft Excel

[2] = tested on: caspase 3/7 activity in Huh-7 cells; assay: Caspase-Glo 3/7 assay, Huh-7; format: cell-based, human; details: 24 h incubation; 2 IC50, IC50, ½ IC50; vs DMSO solvent control; p < .05, n = 3
[3] = tested on: HepG2 cell line; assay: Resazurin cell growth inhibition assay, HepG2; format: cell-based, human; details: Homo sapiens
Source text: as §1, §2, §3, §4, §5

[4] = tested on: caspase 3/7 activity in HepG2 cells; assay: Caspase-Glo 3/7 assay, HepG2; format: cell-based, human; details: 24 h incubation; 2 IC50, IC50, ½ IC50; vs DMSO solvent control; p < .05, n = 3
Source text: The influence of our test samples on caspase 3/7 activity in liver cancer cells (HepG2 cells) was detected using Caspase-Glo 3/7 Assay kit (Promega, Madison, WI) as previously described[45] (see Supplementary).
as §2, §3, §4
Alamar Blue or Resazurin (Promega, Mannheim, Germany) reduction assay was used to assess the cytotoxicity of the studied samples. The assay tests cellular viability and mitochondrial function. Briefly y, adherent cells were grown in tissue culture flask s, and then harvested by treating the fl asks with 0.025% trypsin and0.25 mM EDTA for 5 min. Once detached, cells were washed, counted and an aliquot (5 * 103cells) was placed in each well of a96-well cell culture plate in a total volume of […]. Cells were allowed to attach overnight and then treated with samples. The final concentration of samples ranged from 0 to 10 0 mM. […] Fluorescence was measured on an automated 96-well Infinite M2000 ProTM plate reader (Tecan, Crailsheim, Germany) using an excit ation wave-length of 54 4 nm and an emission wavelength of 590 nm. […]
The influence of our test samples on cas pase 3/7 activity in […] was detected using Caspase -Glo 3/7 Assay kit (Promega). […] Luminescence was measured using well Infinite M2000 Pro TM instrument (Tecan).Caspase 3/7 activity was expressed as percentage of the unt reated

[5] = tested on: Huh-7 cell line; assay: Resazurin cell growth inhibition assay, Huh-7; format: cell-based, human; details: Homo sapiens
Source text: as §1, §2, §3, §4, §5

[6] = HepG2, 48 h, resazurin assay, 48 h, M ± SEM of three independent experiments, read-out: Cytotoxic activity IC50, HepG2 cell line
[7] = Huh-7, 48 h, resazurin assay, 48 h, M ± SEM of three independent experiments, read-out: Cytotoxic activity IC50, Huh-7 cell line
[8] = Huh-7, converted from μg/mL, read-out: IC50 against Huh-7 cell line, equivalent in μM
[9] = HepG2, converted from μg/mL, read-out: IC50 against HepG2 cell line, equivalent in μM

Row | melting point | IC50 [5, 8] | IC50 [3, 9] | Compound | IC50 at 48 h [1] | activation of caspase 3/7, Huh-7 cell line [2] | IC50 [3, 6] | activation of caspase 3/7, HepG2 cell line [4] | IC50 [5, 7]
1 | 182 to 184 °C |  | 11.8 µM | CN(C)c1ccc(-c2nc(N3N=C(c4c5ccccc5cc5ccccc45)CC3c3ccc(F)cc3)[nH]c(=O)c2C#N)cc1 (stereo not shown) [Compound 4q, 2-[3-Anthracene-9-yl-5–(4-fluoro-phenyl)-4,5-dihydro-pyrazol-1-yl]-4–(4-dimethylamino-phenyl)-6-oxo-1,6-dihydro-pyrimidine-5-carbonitrile] | 34.3 ± 6.42 µg/mL (≈ 59.3 µM) | significant increase | 6.85 ± 0.85 µg/mL | significant increase | 8.66 ± 1.52 µg/mL
2 | 148 to 150 °C |  |  | COc1cc(-c2nc(N3N=C(c4c5ccccc5cc5ccccc45)CC3c3ccc(F)cc3)[nH]c(=O)c2C#N)cc(OC)c1OC (stereo not shown) [Compound 4m, 2-[3-Anthracene-9-yl-5–(4-fluoro-phenyl)-4,5-dihydro-pyrazol-1-yl]-6-oxo-4–(3,4,5-trimethoxy-phenyl)-1,6-dihydro-pyrimidine-5-carbonitrile] | 24.1 ± 4.34 µg/mL (≈ 38.6 µM) | significant increase | 8.12 ± 1.82 µg/mL | significant increase | 7.5 ± 0.98 µg/mL
3 | 160 to 162 °C |  |  | COc1cc(C2CC(c3c4ccccc4cc4ccccc34)=NN2c2nc(-c3ccc(N(C)C)cc3)c(C#N)c(=O)[nH]2)cc(OC)c1OC (stereo not shown) [Compound 4s, 2-[3-Anthracene-9-yl-5–(3,4,5-trimethoxy-phenyl)-4,5-dihydro-pyrazol-1-yl]-4–(4-dimethylamino-phenyl)-6-oxo-1,6-dihydro-pyrimidine-5-carbonitrile] | 20.3 ± 4.15 µg/mL (≈ 31.2 µM) |  | 8.66 ± 1.44 µg/mL |  | 11.3 ± 0.61 µg/mL
4 | 174 to 175 °C |  |  | CN(C)c1ccc(-c2nc(N3N=C(c4c5ccccc5cc5ccccc45)CC3c3ccc(N(C)C)cc3)[nH]c(=O)c2C#N)cc1 (stereo not shown) [Compound 4r, 2-[3-Anthracene-9-yl-5–(4-dimethylamino-phenyl)-4,5-dihydro-pyrazol-1-yl]-4–(4-dimethylamino-phenyl)-6-oxo-1,6-dihydro-pyrimidine-5-carbonitrile] | 25.2 ± 5.24 µg/mL (≈ 41.8 µM) |  | 8.44 ± 1.1 µg/mL |  | 7.61 ± 0.21 µg/mL

Further lines, the compound ahead of its results:

Row | Compound | melting point | IC50 [5, 8] | IC50 [3, 9] | IC50 at 48 h [1] | activation of caspase 3/7, Huh-7 cell line [2] | IC50 [3, 6] | activation of caspase 3/7, HepG2 cell line [4] | IC50 [5, 7]
5 | N#Cc1c(-c2c[nH]c3ccccc23)nc(N2N=C(c3c4ccccc4cc4ccccc34)CC2c2ccc(F)cc2)[nH]c1=O (stereo not shown) [Compound 4i, 2-[3-Anthracene-9-yl-5–(4-fluoro-phenyl)-4,5-dihydro-pyrazol-1-yl]-4-(1H-indol-3-yl)-6-oxo-1,6-dihydro-pyrimidine-5-carbonitrile] | 184 to 185 °C | 11.2 µM |  | 31.4 ± 2.07 µg/mL (≈ 54.7 µM) | significant increase | 9.54 ± 1.24 µg/mL | significant increase | 6.47 ± 0.41 µg/mL
6 | COc1cc(C2CC(c3c4ccccc4cc4ccccc34)=NN2c2nc(-c3c[nH]c4ccccc34)c(C#N)c(=O)[nH]2)cc(OC)c1OC (stereo not shown) [Compound 4k, 2-[3-Anthracene-9-yl-5–(3,4,5-trimethoxy-phenyl)-4,5-dihydro-pyrazol-1-yl]-4-(1H-indol-3-yl)-6-oxo-1,6-dihydro-pyrimidine-5-carbonitrile] | 228 to 230 °C |  |  | 27 ± 4.12 µg/mL (≈ 41.8 µM) |  | 14.1 ± 3.01 µg/mL |  | 13.5 ± 2.32 µg/mL
7 | N#Cc1c(-c2ccc(F)cc2)nc(N2N=C(c3c4ccccc4cc4ccccc34)CC2c2ccc(F)cc2)[nH]c1=O (stereo not shown) [Compound 4e, 2-[3-Anthracene-9-yl-5–(4-fluoro-phenyl)-4,5-dihydro-pyrazol-1-yl]-4–(4-fluoro-phenyl)-6-oxo-1,6-dihydro-pyrimidine-5-carbonitrile] |  | 11.1 µM | 9.6 µM | 24.1 ± 4.63 µg/mL (≈ 43.6 µM) | significant increase | 5.34 ± 0.21 µg/mL | significant increase | 6.13 ± 1.01 µg/mL
8 | N#Cc1c(-c2ccccc2)nc(N2N=C(c3c4ccccc4cc4ccccc34)CC2c2c[nH]c3ccccc23)[nH]c1=O (stereo not shown) [Compound 4d, 2-[3-Anthracene-9-yl-5-(1H-indol-3-yl)-4,5-dihydro-pyrazol-1-yl]-6-oxo-4-phenyl-1,6-dihydro-pyrimidine-5-carbonitrile] | 135 to 137 °C |  |  | 21.5 ± 4.07 µg/mL (≈ 38.6 µM) |  | 17.2 ± 4.04 µg/mL |  | 8.42 ± 1.04 µg/mL
